“Also recorded” adds a separate entry of the source.
Key:
[1] = test system: human bronchial epithelial lining cells; assay: Cytotoxicity in human bronchial epithelial lining cells; type: cell-based
MA-104 cells = conditions: visual or neutral red reads
[2] = test system: SARS-CoV-2 strain USA-WA1/2020; type: cell-based; conditions: dNHBE cells, conversion of 5.55 µM
[3] = test system: human epithelial airway cells; conditions: 1 µM dose; cited from earlier work

SMILES	observed cytotoxicity at highest dose given ([1]; 1.66 µM)	cytotoxicity to MA-104 cells (MA-104 cells)	average EC90 expressed [2] [µg/mL]	toxicity in human epithelial airway cells [3]	observed cytotoxicity at highest dose given ([1]; 30 µM)
CCC(CC)COC(=O)[C@H](C)N[P@](=O)(OC[C@H]1O[C@@](C#N)(c2ccc3c(N)ncnn23)[C@H](O)[C@@H]1O)Oc1ccccc1 [Remdesivir, reference compound]	no observed cytotoxicities	–	–	–	–
CC#C[C@]1(O)CCC2C3CCC4=CC(=O)CCC4=C3[C@@H](c3ccc4c(c3)OCO4)C[C@@]21C (some centres unmarked) [PT150]	–	significant cytotoxicity	3.13	absence of toxicity	No cytotoxicity; also recorded: no observed cytotoxicities
